In patent US9221822B2, “Thiazolopyrimidine modulators as immunosuppressive agents” (Katholieke Universiteit Leuven, K.U.Leuven R&D, priority 2009, dated 2015):

What was measured:
[1] = system: Human peripheral blood mononuclear cells (PBMCs) as Responder cells, RPMI 1788 Stimulator cells; assay: Mixed Lymphocyte Reaction (MLR) test; format: cell-based; conditions: 6 days coculture, 3H-thymidine incorporation
Summary of the method: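 Human PBMC responders (0.12×10^6) were cocultured 6 days with mitomycin C-treated RPMI 1788 stimulators (0.045×10^6) and compound in RPMI 1640 with 10% FCS, in triplicate. A ^3H-thymidine pulse on day 5, harvested 18 h later, measured proliferation (cpm), converted to % inhibition versus a compound-free MLR.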

[2] = system: cardiac allograft (C57BL/6 H-2b donor heart in Balb/c H-2d recipient); assay: mouse model of cardiac allograft transplantation (graft survival); format: in vivo
Description: Inbreed C57BL/6 H-2^b and Balb/c H-2^d female mice, 8-10 weeks old, 20-25 g, were used as donor and recipient, respectively. Heterotopic heart transplantation was performed by implanting the donor heart on the neck of recipients using conventional microsurgery techniques. Graft beating was checked daily by inspection and palpation. Cessation of beating indicated graft rejection, which was confirmed by histological examination. Housing and all experimental animal procedures were approved by the Institutional Animal Care and Research Advisory Committee of the KU Leuven.

[3] = Homo sapiens, RPMI-1788, lowest concentration giving 50% inhibition of the MLR

Row | SMILES | IC50 [1, 3] [nM] | further results
1 | Nc1nc(N2CCN(C(=O)COc3ccc(Cl)cc3)CC2)c2nc(-c3cccnc3)sc2n1 [Example 121a, 5-amino-7-[4-(4-chlorophenoxyacetyl)piperazin-1-yl]-2-(pyridine-3-yl)thiazolo[5,4-d]pyrimidine] | 50 | grafts with continuous survival during treatment ([2]; Example 448, 40 mg/kg by daily oral gavage until day 30, n=4): 3 out of 4; graft beating after withdrawal of the treatment ([2]; Example 448, 40 mg/kg oral, treatment stopped day 30): continued beating after withdrawal of the treatment (up to 60 days)
2 | Cc1ccc(NC(=O)N2CCN(c3nc(N)nc4sc(-c5cccnc5)nc34)CC2)cc1 [Example 222, 4-(5-amino-2-(pyridin-3-yl)thiazolo[5,4-d]pyrimidin-7-yl)-N-p-tolylpiperazine-1-carboxamide] | – | graft survival ([2]; Example 449, 20 mg/kg per day): up to 13 days; grafts continuously functioning after stopping the treatment on day 30 ([2]; Example 449, 40 mg/kg per day): 3/4; grafts with continuous survival during treatment ([2]; Example 449, 40 mg/kg per day by daily gavage until day 30): 4/6
3 | Nc1nc(N2CC[C@@H](NC(=O)c3ccc(Cl)cc3)C2)c2nc(CCc3ccc(F)cc3)sc2n1 [Example 144, 5-amino-2-[2-(4-fluorophenyl)ethyl]-7-(3-(R)-(4-chlorobenzoylamino)-pyrrolidin-1-yl)-thiazolo[5,4-d]pyrimidine] | 5130 | –
4 | Nc1nc(N2CCN(C(=O)COc3ccc(Cl)cc3)CC2)c2ccsc2n1 [Example 351, 1-(4-(2-aminothieno[2,3-d]pyrimidin-4-yl)piperazin-1-yl)-2-(4-chlorophenoxy)ethanone] | 1230 | –
5 | Nc1nc(NCc2ccccc2)c2cc(-c3ccc(F)cc3)sc2n1 [Example 327, 2-amino-4-N-benzylamino-6-(4-fluorophenyl)-thieno[2,3-d]pyrimidine] | – | IC50 ([1]; lowest concentration giving 50% inhibition of the MLR): 6800 nM
6 | O=C(COc1ccc(Cl)cc1)N1CCN(c2ncnc3sc(-c4ccc(F)cc4)nc23)CC1 [Example 301, 1-(4-(2-(4-fluorophenyl)thiazolo[5,4-d]pyrimidin-7-yl)piperazin-1-yl)-2-(4-chlorophenoxy)ethanone] | 670 | –
7 | CCOc1nc(N)nc2sc(-c3ccc(F)cc3)cc12 [Example 363, 4-ethoxy-6-(4-fluorophenyl)thieno[2,3-d]pyrimidin-2-amine] | – | melting point: 142 °C
8 | COc1ccc(OCC(=O)N2CCN(c3nc(N)nc4sc(CCc5cccc(OC)c5)nc34)CC2)cc1 [Example 253, 1-(4-(5-amino-2-(3-methoxyphenethyl)thiazolo[5,4-d]pyrimidin-7-yl)piperazin-1-yl)-2-(4-methoxyphenoxy)ethanone] | 710 | –
9 | CN(C(=O)CN1CCN(c2nc(N)nc3[nH]c(-c4ccc(F)cc4)nc23)CC1)c1ccccc1 [Example 413, 2-(4-(2-amino-8-(4-fluorophenyl)-9H-purin-6-yl)piperazin-1-yl)-N-methyl-N-phenylacetamide] | > 10000 | –
10 | Cc1cccc(NC(=O)N2CCN(c3nc(N)nc4sc(CCc5cccs5)nc34)CC2)c1 [Example 157, 5-amino-2-(2-thiophen-2-ylethyl)-7-(4-m-tolylcarbamoylpiperazin-1-yl)thiazolo[5,4-d]pyrimidine] | 630 | –
11 | Nc1nc(N2CCN(C(=O)COc3cccc([N+](=O)[O-])c3)CC2)c2nc(-c3ccc(F)cc3)sc2n1 [Example 129, 5-amino-2-(4-fluorophenyl)-7-(4-[2-(3-nitrophenoxy)acetyl]-piperazin-1-yl)-thiazolo[5,4-d]pyrimidine] | 290 | –
12 | Nc1nc(N2CCN(C(=O)Cc3cccs3)CC2)c2nc(-c3ccc(F)cc3)[nH]c2n1 [Example 403, 1-(4-(2-amino-8-(4-fluorophenyl)-9H-purin-6-yl)piperazin-1-yl)-2-(thiophen-2-yl)ethanone] | 7080 | –
13 | Nc1nc(N2CCN(C(=O)COc3ccc(Cl)cc3)CC2)c2nc(-c3ccc(F)cc3)sc2n1 [Example 45, 1-(4-(5-amino-2-(4-fluorophenyl)thiazolo[5,4-d]pyrimidin-7-yl)piperazin-1-yl)-2-(4-chlorophenoxy)ethanone] | 300 | –
14 | Nc1nc(N2CCN(C(=O)COc3ccccc3)CC2)c2nc(-c3ccc(F)cc3)sc2n1 [Example 130, 5-amino-2-(4-fluorophenyl)-7-(4-(2-phenoxyacetyl)-piperazin-1-yl)-thiazolo[5,4-d]pyrimidine] | 350 | –
15 | CN(C(=O)CN1CCN(c2nc(N)nc3sc(CCc4ccc(F)cc4)nc23)CC1)c1ccccc1 [Example 139, 5-amino-2-[2-(4-fluorophenyl)ethyl]-7-(4-[(methylphenylcarbamoyl)-methyl]piperazin-1-yl)-thiazolo[5,4-d]pyrimidine] | 3290 | –
